Measured values published in patent publication US10046050B2, “Targeting immunotherapy for amyloidosis” (UNIVERSITY OF TENNESSEE RESEARCH FOUNDATION, priority 2014, dated 2018).

Legend:
human Den ALλ amyloid = assay: Immunohistochemistry of biotinyl-7D8 on formalin-fixed tissue sections; type: binding; conditions: thyroid, label = pre-treatment peptide, or 7D8 alone
Experimental: (§1) The binding of biotinylated 7D8 mAb with autopsy-derived, formalin-fixed, paraffin-embedded tissue sections containing, ATTR, ALκ or ALλ was assessed immunohistochemically. Consecutive tissue sections were stained with: Congo red; biotinylated 7D8 alone; 7D8 with the control peptide p5; or, 7D8 mAb with peptope p75 pretreatment. Briefly, six μm-thick tissue sections were subjected to antigen retrieval by incubation in CitraPlus solution (BioGenex, San Ramon, Calif.) for 30 min at 90° C. Unlabeled peptope p75 was added to the tissue at ˜3 μg/mL and incubated overnight at 4° C. Unbound reagent was removed by washing in PBST for 30 min. Tissues sections (with or without peptope pretreatment) were immunostained by addition of 3 μg/mL biotinylated 7D8 mAb. Slides were developed by addition of streptavidin-HRP (Vectastain Elite ABC kit, Vector Labs) followed by 3,3′-diaminobezidene (Vector Labs) and examined using a Leica DM500 microscope.

human Tal ALκ amyloid = assay: as above; type: binding; conditions: kidney, label = pre-treatment peptide, or 7D8 alone
Experimental: as §1

human ATTR amyloid = assay: as above; type: binding; conditions: label = pre-treatment peptide, or 7D8 alone
Experimental: as §1

mAb 7D8 = assay: ELISA binding of 7D8 to peptopes dried on microplates; conditions: both assays
Experimental: Peptides (p75-78 and control reagents; peptide 39 [CGGHEDT] (SEQ ID NO: 54), peptide 41 [CGGHEDTMADQE] (SEQ ID NO: 55) and peptide p5 (SEQ ID NO: 1), were prepared at 1 μg/ml in PBS and 50 μl was added to each well of 1 96-well microplate (Costar EIA/RIA high binding). The peptides were dried onto the well at 37° C. overnight. Sample wells were blocked for 1 h by addition of 200 μL of 1% BSA in PBS. Primary antibodies (7D8 or biotinylated 7D8) and secondary antibodies (biotinylated goat anti mouse) were added in 100 μL of a diluent of 1% BSA and 0.05% tween 20 in PBS. The 7D8 primary antibody was tested with a 1:2 dilution series beginning at 50 nM. A 1/3000 dilution of the secondary biotinylated goat anti-mouse IgG antibody (Sigma) was added for 1 h and the microplate washed. When the biotinylated 7D8 mAb was used the secondary antibody step was omitted. Binding was visualized by addition of a 1/1000 dilution of europium/streptavidin (Perkin Elmer) for 1 h and developed with enhancement solution (Perkin Elmer) before quantifying the signal using a time-resolved fluorescence plate reader (Wallac).

[1] = system: synthetic and naturally-occurring amyloid samples; assay: Pull down assay of ^125I-labeled peptides; type: binding
Experimental: To evaluate the binding of p66 and p5+14 to synthetic and naturally-occurring amyloid, peptides p66 or p5+14 were radiolabeled with iodine-125 (I-125, ^125I) using oxidation with chloramine T (1 mg/ml in water freshly made. Free 1-125 was removed from the reaction mixture by size exclusion chromatography using a Sephadex G-25 solid phase and a 0.1% (w/v) gelatin in PBS mobile phase. Fractions of ˜250 μl were collected and the radioactivity in each measured using a gamma counter (Packard Cobra II auto-gamma counter). Peptide fractions with peak radioactivity were pooled and used for the “pull-down” assays.
For the pull down assay, ^125I-labeled peptide binding to murine: (m) AA and wild type (WT) liver homogenates (25 μl); rVλ6Wil (AL), Aβ(1-40) and islet amyloid polypeptide (IAPP) synthetic fibrils (25 μg), and; transthyretin-associated (ATTR), ALκ4-Cab and ALλ1-Ship human amyloid extracts (50 μg). The ^125I-peptides were prepared in PBST (0.15 M NaCl) or PBST with 1 M NaCl. Ten μl (˜5 ng, ˜100,000 counts per min [cpm]) of the ^125I-peptide solution was added to each test sample in a 200 μl volume. The reaction mixtures were rotated for 1 h at RT, then centrifuged twice at 16,000×g for 10 min. After each step the supernatants were removed and collected in test tubes. The pellets, obtained following the second spin were resuspended in PBST. The radioactivity in both the supernatant and pellet samples were measured using a Packard Cobra II auto-gamma counter. The bound peptide, expressed as % total was calculated according to: Bound peptide (% total)=(Pellet cpm)/(Pellet cpm+Supernatant cpm)

AA amyloid = molecular target: T1, AA amyloid (Mus musculus, UniProt P05367); assay: In vivo pre-targeting of ^125I-11-1F4 to systemic AA amyloid; set-up: species or system mice; conditions: 24 h post injection of 11-1F4 mAb; peptide given 24 h before mAb
T1 construct: from tissue; host or cells: organs of living H2-L^d-huIL-6 Tg Balb/c mice after AEF injection
T1 sequence (P05367 20-94 limits assumed): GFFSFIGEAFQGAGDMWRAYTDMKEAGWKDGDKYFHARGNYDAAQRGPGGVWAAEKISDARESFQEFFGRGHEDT
Experimental: Systemic visceral AA amyloidosis was induced in H2-L^d-huIL-6 Tg Balb/c transgenic mice that constitutively express the human interleukin-6 transgene, by iv injection of 10 μg of purified, splenic AA amyloid (amyloid enhancing factor; AEF) in 100 μL of sterile phosphate-buffered saline (PBS). Peptide p66 pre-targeting of ^125I-11-1F4 was evaluated in mice at 3-4 wk post AEF injection when amyloid load was modest.
Three cohorts of 3 mice, each received ˜400 μg of unlabeled peptide p66, and a second group of 3 cohorts were given peptide p5+14 as a control. Twenty-four hours after the peptide injection all mice were administered ˜150 μCi (˜20 μg) of ^125I-11-1F4 IV in the lateral tail vein. One group of p66 mice (n=3) and one group of p5+14 control mice (n=3) were euthanized at 24, 48 and 72 h post injection of 11-1F4 mAb and the organs harvested at necropsy for fixation, followed by microautoradiographic and immunohistochemical analyses.
For autoradiography, 6-μm-thick sections were cut from formalin-fixed, paraffin-embedded blocks, containing tissues from mice that had received […]. The sections were placed on Plus microscope slides (Fisher Scientific), dipped in NTB-2 emulsion (Eastman Kodak), stored in the dark, and developed after a 4 day exposure. Each section was counterstained with hematoxylin and eosin.
Formalin-fixed paraffin embedded tissue sections, from mice treated with p66 peptope or peptide p5+14 were subjected to antigen retrieval using citrate buffer (pH 6; Dako) 30 min at 90° C. The tissue was then blocked with hydrogen peroxide, casein, and avidin and biotin, per manufacturer's instructions. The biotinylated peptide-reactive mAb (clone 12-3 [described above]) was then added (1.6 μg/mL in PBS) an the samples incubated for 2 h at RT, O/N at 4° C., followed by another 2 h period at RT. […]
The presence of macrophages was detected by staining with mAb Iba-1 (1:8000 diln) followed by addition of biotinylated rabbit anti-mouse secondary reagent (Vector Rabbit Elite kit). […]

[2] = molecular target: T2, human transthyretin (TTR) amyloid-laden tissue (Homo sapiens, UniProt P02766); assay: Pre-targeting immunohistochemistry on ATTR-laden tissue sections; type: binding
T2 construct: from tissue
Experimental: The pre-targeting efficacy of peptide p5+14 in conjunction with mAb clones 4, 5, 12, or 13 was further evaluated using human ATTR-laden formalin-fixed paraffin embedded tissue sections. More particularly, six micrometer-thick sections, cut from formalin-fixed, paraffin embedded human transthyretin (TTR) amyloid-laden tissue, were subjected to antigen retrieval by incubation with CitraPlus (BioGenex, San Ramon, Calif.) for 30 min at 90° C. Peptide p5+14 was added to the tissue at ˜3 μg/mL (30× molar excess over mAb) and incubated overnight at 4° C. Unbound reagent was removed by washing in PBST for 30 min. Tissues (with or without p5+14) were immunostained with a 3 μg/mL solution of biotinylated anti-peptide mAb (clones 4, 5, 12, or 13). Slides were developed by addition of streptavidin-HRP (Vectastain Elite ABC kit, Vector Labs) followed by 3,3′-diaminobezidene (Vector Labs).
By way of positive control, a biotinylated-p5+14 peptide (without mAb) was used to directly stain TTR amyloid in this tissue (red arrows, below), as described above.
To confirm the presence and distribution of amyloid in the tissue a consecutive slide was stained with Congo red. Briefly, tissues were incubated in Congo red solution (0.8% w/v Congo red, 0.2% KOH w/v in 80% ethanol) for 1 h at RT. Sections were then washed in water and counterstained by suspending in Mayer's hematoxylin for 2 min. […]

binding of 7D8 and biotinyl-7D8 (mAb 7D8) | binding of ^125I-peptide to amyloid samples ([1]; 0.15 M NaCl) | binding of ^125I-peptide to amyloid samples ([1]; 1.0 M NaCl) | staining of ATTR amyloid by directly biotinylated peptide (no mAb) ([2]; compared with Congo red) | staining of ATTR amyloid, non-biotinylated peptide pre-targeting then biotinylated anti-peptide mAb ([2]; peptide ˜3 μg/mL, mAb clones 4, 5, 12, or 13 at 3 μg/mL) | Substance | immunohistochemical staining with biotinyl-7D8 (human Den ALλ amyloid) | immunohistochemical staining with biotinyl-7D8 (human Tal ALκ amyloid) | immunohistochemical staining with biotinyl-7D8 (human ATTR amyloid; Gre ATTR, esophagus) | immunohistochemical staining with biotinyl-7D8 (human ATTR amyloid; Gre ATTR, heart) | immunohistochemical staining with biotinyl-7D8 (human ATTR amyloid; Ken ATTR, heart) | immunohistochemical staining with biotinyl-7D8 (human ATTR amyloid; Sno ATTR, heart) | co-localization of ^125I-11-1F4 with AA amyloid after peptide pre-targeting (AA amyloid)
no binding | – | – | – | – | KAQKAQAKQAKQAQKAQKAQAKQAKQ (KAQKAQAKQAKQAQKAQKAQAKQAKQ; Peptide p5) | inhibited this effect | inhibited this effect | decreased | partially inhibited | background 7D8 staining was diminished | background 7D8 staining was diminished | –
– | bound equally well | bound equally well | co-localizes with amyloid deposits | the amyloid was readily visualized | KAQKAQAKQAKQAQKAQKAQAKQAKQAQKAQKAQAKQAKQ (KAQKAQAKQAKQAQKAQKAQAKQAKQAQKAQKAQAKQAKQ; Peptide p5+14) | – | – | – | – | – | – | little evidence of ^125I-11-1F4 co-localized with the amyloid
